Assay results as given in the NIST ThermoML archive (doi:10.1007/s10765-011-0995-x).
Numbers after ± are expanded uncertainties.

Columns and labels:
[1] = xn = mol fraction of the nth substance listed; settings: 101 kPa, Liquid, x2 = 0; for speed of sound: Pulse-echo method
[2] = refractive index (Na D-line) (dimensionless); xn = mol fraction of the nth substance listed; settings: 101 kPa, Liquid, Standard Abbe refractometry, x2 = 0
[3] = 101 kPa, Liquid; for speed of sound: Pulse-echo method
[4] = refractive index (Na D-line) (dimensionless); settings: 101.33 kPa, Liquid, Standard Abbe refractometry

Row | Compound | speed of sound ([1]; 298.15 K) [m/s] | mass density ([1]; 298.15 K) [kg/m3] | viscosity ([1]; 298.15 K) [mPa·s] | speed of sound ([1]; 303.15 K) [m/s] | mass density ([1]; 303.15 K) [kg/m3] | viscosity ([1]; 303.15 K) [mPa·s] | speed of sound ([1]; 308.15 K) [m/s] | mass density ([1]; 308.15 K) [kg/m3] | mass density ([3]; 298.15 K) [kg/m3] | viscosity ([3]; 298.15 K) [mPa·s] | speed of sound ([3]; 298.15 K) [m/s] | mass density ([3]; 303.15 K) [kg/m3] | viscosity ([3]; 303.15 K) [mPa·s] | speed of sound ([3]; 303.15 K) [m/s] | mass density ([3]; 308.15 K) [kg/m3] | viscosity ([3]; 308.15 K) [mPa·s] | speed of sound ([3]; 308.15 K) [m/s] | refractive index ([4]; 298.15 K) | refractive index ([4]; 303.15 K) | refractive index ([4]; 308.15 K) | other results
1 | CCCCCCCCCCO [decan-1-ol] + Cc1ccccc1Cl | 1380.1 ± 1.3 | 826.41 ± 0.43 | 11.82 ± 0.11 | 1364.9 ± 1.3 | 822.92 ± 0.44 | 9.766 ± 0.095 | 1346 ± 1.3 | 819.42 ± 0.44 |  |  |  |  |  |  |  |  |  |  |  |  | viscosity ([1]; 308.15 K): 8.13 ± 0.081 mPa·s; refractive index ([2]; 298.15 K): 1.4346 ± 0.0005; refractive index ([2]; 303.15 K): 1.4326 ± 0.0005; refractive index ([2]; 308.15 K): 1.4305 ± 0.0005
2 | CCCCCCCCCCO [decan-1-ol] + Cc1cccc(Cl)c1 | 1380.1 ± 1.3 | 826.41 ± 0.43 | 11.82 ± 0.11 | 1364.9 ± 1.3 | 822.92 ± 0.44 | 9.766 ± 0.095 | 1346 ± 1.3 | 819.42 ± 0.44 |  |  |  |  |  |  |  |  |  |  |  |  | viscosity ([1]; 308.15 K): 8.13 ± 0.081 mPa·s; refractive index ([2]; 298.15 K): 1.4346 ± 0.0005; refractive index ([2]; 303.15 K): 1.4326 ± 0.0005; refractive index ([2]; 308.15 K): 1.4305 ± 0.0005
3 | Cc1ccc(Cl)cc1 [4-chlorotoluene] |  |  |  |  |  |  |  |  | 1065.11 ± 0.27 | 0.828 ± 0.011 | 1289.1 ± 1.2 | 1059.51 ± 0.26 | 0.784 ± 0.011 | 1271 ± 1.2 | 1053.9 ± 0.25 | 0.73 ± 0.011 | 1253.1 ± 1.2 | 1.5188 ± 0.0005 | 1.5166 ± 0.0005 | 1.5138 ± 0.0005 | 
4 | Cc1cccc(Cl)c1 [3-chlorotoluene] |  |  |  |  |  |  |  |  | 1067.29 ± 0.29 | 0.798 ± 0.011 | 1298.3 ± 1.3 | 1062.81 ± 0.28 | 0.746 ± 0.011 | 1280.1 ± 1.3 | 1058.33 ± 0.27 | 0.705 ± 0.01 | 1262.1 ± 1.3 | 1.5207 ± 0.0005 | 1.5189 ± 0.0005 | 1.5169 ± 0.0005 | 
5 | Cc1ccccc1Cl [2-chlorotoluene] |  |  |  |  |  |  |  |  | 1077.41 ± 0.3 | 0.943 ± 0.013 | 1301.2 ± 1.3 | 1072.83 ± 0.3 | 0.885 ± 0.012 | 1284.1 ± 1.3 | 1068.24 ± 0.29 | 0.805 ± 0.011 | 1266.1 ± 1.3 | 1.5219 ± 0.0005 | 1.5189 ± 0.0005 | 1.5169 ± 0.0005 | 
6 | CCCCCCCCCCO [decan-1-ol] + Cc1ccc(Cl)cc1 | 1380.1 ± 1.3 | 826.41 ± 0.43 | 11.82 ± 0.11 | 1364.9 ± 1.3 | 822.92 ± 0.44 | 9.766 ± 0.095 | 1346 ± 1.3 | 819.42 ± 0.44 |  |  |  |  |  |  |  |  |  |  |  |  | viscosity ([1]; 308.15 K): 8.13 ± 0.081 mPa·s; refractive index ([2]; 298.15 K): 1.4346 ± 0.0005; refractive index ([2]; 303.15 K): 1.4326 ± 0.0005; refractive index ([2]; 308.15 K): 1.4305 ± 0.0005
7 | CCCCCCCCCCO [decan-1-ol] |  |  |  |  |  |  |  |  | 826.41 ± 0.43 | 11.82 ± 0.11 | 1380.1 ± 1.3 | 822.92 ± 0.44 | 9.766 ± 0.095 | 1364.9 ± 1.3 | 819.42 ± 0.44 | 8.13 ± 0.081 | 1346 ± 1.3 | 1.4346 ± 0.0005 | 1.4326 ± 0.0005 | 1.4305 ± 0.0005 | 
